# Calls of active or inactive are those of the source. No cut-off for these calls is given here.
# System: Mus musculus
# Assay: Antiepileptic activity in Mus musculus (mouse) assessed as protection against maximal electroshock-induced seizures at 300 mg/kg after 0.5 hr
# Type: functional, organism-based
# Set-up: dose 300 mg/kg
# Settings: not given
row,Compound,Activity
1,C/C(=N\NC(=O)Nc1ccc(Br)cc1)c1ccc(C)cc1,inactive
2,CNC(=S)Nc1ccc(S(=O)(=O)Nc2nc3ccc(Cl)cc3s2)cc1,inactive
3,CCNC(=S)Nc1ccc(S(=O)(=O)Nc2nc3ccc(Cl)cc3s2)cc1,inactive

# Organism: Mus musculus
# Assay: Antiepileptic activity in Mus musculus (mouse) assessed as minimum dose required to protect half or more number of animals against maximal electroshock-induced seizures after 0.5 hr
# Type: functional
# Settings: read-out: MED
row,Compound,minimal effective dose
1,CNC(=S)Nc1ccc(S(=O)(=O)Nc2ccc(Br)cc2)cc1,300 mg/kg
2,CCOc1ccc(NC(=O)N/N=C(\C)c2ccc(O)cc2)cc1,100 mg/kg
3,CCOc1ccc(NC(=O)N/N=C(\C)CC(C)=O)cc1,100 mg/kg
4,CNC(=S)Nc1ccc(S(=O)(=O)Nc2nc3ccc(OC)cc3s2)cc1,300 mg/kg
5,Cc1ccc(NC(=S)Nc2ccc(S(=O)(=O)Nc3ccc(Br)cc3)cc2)cc1,100 mg/kg
6,C/C(=N\NC(=O)Nc1ccc(Br)cc1)c1ccc(O)cc1,300 mg/kg
7,Fc1ccc(NC2=NSC(Nc3ccc(F)cc3)N2)cc1 (centres undefined),100 mg/kg
8,O=C(NN=C1c2ccccc2C(=O)c2ccccc21)Nc1ccc([N+](=O)[O-])cc1,300 mg/kg
9,c1cncc(NC2=NSC(Nc3cccnc3)N2)c1 (centres undefined),300 mg/kg
10,CCOc1ccc(NC(=O)N/N=C/c2ccccc2Cl)cc1,100 mg/kg
11,c1cc(NC2=NSC(Nc3ccncc3)N2)ccn1 (centres undefined),300 mg/kg
12,O=c1snc(Nc2ccccn2)n1-c1ccccn1,300 mg/kg
13,CCOc1ccc(NC(=O)N/N=C/c2ccccc2O)cc1,300 mg/kg
14,CCOc1ccc(NC(=O)N/N=C(\C)CC(C)C)cc1,100 mg/kg
15,c1ccc2c(NC3=NSC(Nc4cccc5ccccc45)N3)cccc2c1 (centres undefined),100 mg/kg
16,c1ccc(NC2=NSC(Nc3ccccn3)N2)nc1 (centres undefined),300 mg/kg
17,O=c1snc(Nc2cccnc2)n1-c1cccnc1,300 mg/kg
18,COc1cc(/C=N/NC(=O)Nc2ccc(Br)cc2)ccc1O,300 mg/kg
19,CC(C)=NNC(=O)Nc1ccc([N+](=O)[O-])cc1,300 mg/kg
20,Cc1ccc(NC(=S)Nc2ccc(S(=O)(=O)Nc3ccc(Cl)cc3)cc2)cc1,100 mg/kg
21,O=c1snc(Nc2ccc(F)cc2)n1-c1ccc(F)cc1,100 mg/kg

row,Compound,minimal effective dose
1,COc1ccc(/C=N/NC(=O)Nc2ccc(Br)cc2)cc1OC,300 mg/kg
2,CN(C)c1ccc(/C=N/NC(=O)Nc2ccc(Br)cc2)cc1,300 mg/kg
3,CCNC(=S)Nc1ccc(S(=O)(=O)Nc2nc3ccc(F)cc3s2)cc1,300 mg/kg
4,O=C(N/N=C/c1ccccc1[N+](=O)[O-])Nc1ccc(Br)cc1,300 mg/kg
5,CCOc1ccc(NC(=O)N/N=C(\C)c2ccc(Cl)cc2)cc1,300 mg/kg
6,O=C(N/N=C/c1ccccc1Cl)Nc1ccc(Br)cc1,300 mg/kg
7,CNC(=S)Nc1ccc(S(=O)(=O)Nc2ccc(Cl)cc2)cc1,300 mg/kg
8,O=C1C=CC(=NNC(=O)Nc2ccc([N+](=O)[O-])cc2)C=C1,300 mg/kg
9,CCOc1ccc(Nc2nsc(=O)n2-c2ccc(OCC)cc2)cc1,100 mg/kg
10,Cc1ccc(NC(=S)Nc2ccc(S(=O)(=O)Nc3ccc(C)cc3)cc2)cc1,300 mg/kg
11,CNC(=S)Nc1ccc(S(=O)(=O)Nc2nc3ccc(F)cc3s2)cc1,300 mg/kg
12,C/C(=N\NC(=O)Nc1ccc(Br)cc1)c1ccc([N+](=O)[O-])cc1,300 mg/kg
13,O=c1snc(Nc2ccncc2)n1-c1ccncc1,300 mg/kg
14,C/C(=N\NC(=O)Nc1ccc(Br)cc1)c1ccccc1,100 mg/kg
15,O=c1snc(Nc2ncccn2)n1-c1ncccn1,300 mg/kg
16,O=C(NN=C(c1ccccc1)c1ccccc1)Nc1ccc(Br)cc1,300 mg/kg
17,CCOc1ccc(NC2=NSC(Nc3ccc(OCC)cc3)N2)cc1 (centres undefined),100 mg/kg
18,O=c1snc(Nc2cccc3ccccc23)n1-c1cccc2ccccc12,100 mg/kg
19,C/C(=N\NC(=O)Nc1ccc(Br)cc1)c1ccc(N)cc1,300 mg/kg
20,CCOc1ccc(NC(=O)N/N=C(\C)c2ccccc2O)cc1,100 mg/kg

# — ChEMBL document CHEMBL3044657, “Identification of an antiepileptic lead compound with a more selective activity and its analogues for GABA-AT using in silico approach” (2013)
